Source: US20230203060A1 (GENFLEET THERAPEUTICS (SHANGHAI) INC., priority 2020, published 2023)
pIC50: −log10 of the molar value. Where a name gives a salt, the structure may show the parent alone. Read-outs that look alike come from different tables or passages of the source.

Experiments:
Type in all cases: cell-based, human
[1] = system: KRAS G12C mutant NCI-H358 cells; experiment: Cell proliferation inhibition experiment, 3D spheroid, CellTiter-Glo, NCI-H358; settings: NCI-H358 (KRAS G12C mutant) 3D spheroid, 5 days with compound, CellTiter-Glo, read-out: H358 IC50
Text: (§1) Raw materials and instruments: NCI-H358 purchased from ATCC; article number: CRL-5807; batch number: 70010825; A549 purchased from ATCC; article number: CCL-185; batch number: 70007820; RPMI1640 purchased from Gibco; article number: 11875-093; batch number: 2152748; F-12K purchased from Gibco; article number: 21127-022; batch number: 2185853; FBS purchased from Gibco; article number: 10099-141; batch number: 2109290CP; PS purchased from Gibco; article number: 15140-122; batch number: 2145451; Trypsin-EDTApurchased from Gibco; article number: 25200-072; batch number: 2085552; CellTiter Glo working solution purchased from Promega; article number: G9683; batch number: 398478; DMSO purchased from VWR AMRESCO; article number: 0231-500ML; batch number: 18C0656168; 384-well spheroid plate purchased from Corning; article number: 3830; batch number: 27519032; white opaque 384-well plate purchased from Corning; article number: 3570; batch number: 26819023; microplate reader purchased from PerkinElmer; model: Envision MLD2105-0020; equipment number 1050369.
(§2) NCI-H358 is a KRAS G12C mutant human non-small cell lung cancer cell line, cultured in 10% FBS RPMI-1640+1% PS culture medium; and A549 is a KRAS G12S mutant human lung adenocarcinoma cell line, cultured in 10% FBS F-12K+1% PS culture medium. Cells at logarithmic growth stage were taken, digested with trypsin-EDTA, then collected and counted. H358 was adjusted to 1.8 E4 cells/mL with 2% FBS RPMI-1640 culture medium, and A549 was adjusted to 8.9 E3 cells/mL with 2% FBS F-12K culture medium; 800 (45 μL) H358 or 400 (45 μL) A549 were inoculated respectively in a 384-well spheroid plate and cultured overnight to establish a 3D cell model. A 3.16-fold gradient concentration stock solution of 1000× compound was prepared with DMSO, and diluted 100-fold to 10× compound stock solution with 2% FBS culture medium. On the second day after cell inoculation, 5 μL of 10× compound stock solution was added to each cell culture well, with a final concentration of 1× and a DMSO content of 0.1%. DMSO was used as experimental control (control), and 2% FBS culture medium was used as blank control (blank). After 5 days of compound cell culture, 25 μL of CellTiter-Glo working solution was added to each well, mixed well at 400 rpm and incubated for 30 minutes. After standing at room temperature for 30 minutes, 40 μL of the mixed solution was transferred to a white opaque 384-well plate, and the luminescence chemiluminescence value was read with a microplate reader. The cell proliferation inhibition rate IR (%)=(RLU control -RLU compound)/(RLU control -RLU blank) x100% was calculated. The gradient dilution concentration of the compound and the corresponding cell proliferation inhibition rate were fitted by Prism 6 four-parameter method, and the IC50 value was calculated. The inhibitory activity of the compounds prepared in the above embodiments of the present disclosure on KRAS G12C mutant NCI-H358 cells was 0.0001 μM to 0.5 μM; the inhibitory activity of some compounds on KRAS G12C mutant NCI-H358 cells was 0.001 μM to 0.1 μM or 0.001 μM to 0.05 μM.

[2] = system: A549 cells (KRAS G12S mutant); experiment: Cell proliferation inhibition experiment, 3D spheroid, CellTiter-Glo, A549; settings: A549 (KRAS G12S mutant) 3D spheroid, 5 days with compound, CellTiter-Glo, read-out: A549 IC50
Text: as §1, §2

[3] = system: KRAS G12C mutant MIA PaCa-2 cells; experiment: Cell proliferation inhibition experiment, 3D spheroid, CellTiter-Glo, MIA PaCa-2; settings: Homo sapiens, MIA PaCa-2, 120 h, 3D cell model in 384-well spheroid plate, 5 days, CellTiter-Glo; read-out: MIA-PaCa2 IC50
Text: Raw materials and instruments: MIA PaCa-2 purchased from ATCC; article number: CRL-1420; batch number: 63143594; DMEM purchased from Gibco; article number: 11995-065; batch number: 2186878; FBS purchased from Gibco; article number: 10099-141; batch number: 2109290CP; Horse Serum purchased from Gibco; article number: 16050-122; batch number: 1818976; PS purchased from Gibco; article number: 15140-122; batch number: 2145451; Trypsin-EDTA purchased from Gibco; article number: 25200-072; batch number: 2085552; CellTiter Glo working solution purchased from Promega; article number: G9683; batch number 398478; DMSO purchased from VWR AMRESCO; article number: 0231-500ML; batch number: 18C0656168; 384-well spheroid plate purchased from Corning; article number: 3830; batch number: 27519032; white opaque 384-well plate purchased from Corning; article number: 3570; batch number: 26819023; microplate reader purchased from PerkinElmer; model: Envision MLD2105-0020; equipment number 1050369.
MIA PaCa-2 is a KRAS G12C mutant human pancreatic cancer cell line, cultured in 10% FBS+2.5% Horse Serum DMEM+1% PS culture medium; cells at logarithmic growth stage were taken, digested with trypsin-EDTA, then collected and counted, and 200 MIA PaCa-2 were inoculated in a 384-well spheroid plate, respectively, and cultured overnight to establish a 3D cell model. A 3.16-fold gradient concentration stock solution of 1000× compound was prepared with DMSO, and diluted 100-fold to 10× compound stock solution with culture medium. On the second day after cell inoculation, 10× compound stock solution was added to each cell culture well, with a final concentration of 1× and a DMSO content of 0.1%. DMSO was used as experimental control (control), and culture medium was used as blank control (blank). After 5 days of compound cell culture, 30 μL of CellTiter-Glo working solution was added to each well, mixed well and incubated for 30 minutes. After standing at room temperature for 30 minutes, 40 μL of the mixed solution was transferred to a white opaque 384-well plate, and the luminescence chemiluminescence value was read with a microplate reader. The cell proliferation inhibition rate IR (%)=(RLU control -RLU compound)/(RLU control−RLU blank)×100% was calculated. The gradient dilution concentration of the compound and the corresponding cell proliferation inhibition rate were fitted by XLFit four-parameter method, and the IC50 value was calculated. The inhibitory activity of the compounds prepared in the above embodiments of the present disclosure on KRAS G12C mutant MIA PaCa-2 cells was 0.0001 μM to 0.5 μM; the inhibitory activity of some compounds on KRAS G12C mutant MIA PaCa-2 cells was 0.001 μM to 0.1 μM or 0.001 μM to 0.05 μM.

pIC50 ([1]; Homo sapiens, NCI-H358, 120 h) | Structure (SMILES) | other results
6.75 | C=CC(=O)N1CCN2C(=O)c3c(N4CCC(N(C)C)CC4)nc(-c4c(O)cccc4F)c(Cl)c3OC[C@H]2C1 [Z31, (6aR)-8-acryloyl-4-chloro-1-(4-(dimethylamino)piperidin-1-yl)-3-(2-fluoro-6-hydroxyphenyl)-6,6a,7,8,9,10-hexahydro-12H-pyrazino[2,1-c]pyrido[3,4-f][1,4]oxazepin-12-one] | pIC50 ([2]; Homo sapiens, A549, 120 h): < 4.52
6.95 | C=CC(=O)N1CCN2C(=O)c3c(NC(=O)CC(C)(C)C)nc(-c4c(O)cccc4F)c(Cl)c3OC[C@H]2C1 [Z33, N-((6aR)-8-acryloyl-4-chloro-3-(2-fluoro-6-hydroxyphenyl)-12-oxo-6,6a,7,8,9,10-hexahydro-12H-pyrazino[2,1-c]pyrido[3,4-f][1,4]oxazepin-1-yl)-3,3-dimethylbutanamide] | pIC50 ([2]; Homo sapiens, A549, 120 h): < 4.52
6.84 | C=CC(=O)N1CCN2C(=O)c3c(N4CCN5C(=O)CC[C@H]5C4)nc(-c4c(O)cccc4F)c(Cl)c3OC[C@H]2C1 (single isomer, unassigned) [Z317a-1] | pIC50 ([2]; Homo sapiens, A549, 120 h): < 4.52
7.35 | C=CC(=O)N1CCN2C(=O)c3c(N4C[C@](C)(O)CC4(C)C)nc(-c4c(O)cccc4F)c(F)c3OC[C@H]2C1 (single isomer, unassigned) [Z256b-2] | pIC50 [3]: 6.98
7.39 | C=CC(=O)N1CCN2C(=O)c3c(N4C[C@@H](C)O[C@@H](C)C4)nc(-c4c(O)cccc4F)c(Cl)c3OC[C@H]2C1 [Z247, (6aR)-8-acryloyl-1-((2S,6R)-2,6-dimethylmorpholino)-4-chloro-3-(2-fluoro-6-hydroxyphenyl)-6,6a,7,8,9,10-hexahydro-12H-pyrazino[2,1-c]pyrido[3,4-f][1,4]oxazepin-12-one] | pIC50 [3]: 7.33
 | C=CC(=O)N1CCN2C(=O)c3c(N[C@H]4[C@@H]5CN(C)C[C@@H]54)nc(-c4c(O)cccc4F)c(Cl)c3OC[C@H]2C1 [Z46, (6aR)-8-acryloyl-4-chloro-3-(2-fluoro-6-hydroxyphenyl)-1-(((1R,5S,6s)-3-methyl-3-azabicyclo[3.1.0]hexan-6-yl)amino)-6,6a,7,8,9,10-hexahydro-12H-pyrazino[2,1-c]pyrido[3,4-f][1,4]oxazepin-12-one] | pIC50 [1]: 6.34; pIC50 [2]: < 4.70
7.49 | C=CC(=O)N1CCN2C(=O)c3c(N4CCOC(C)(C)C4)nc(-c4c(O)cccc4F)c(F)c3OC[C@H]2C1 [Z255, (6aR)-8-acryloyl-1-(2,2-dimethylmorpholino)-4-fluoro-3-(2-fluoro-6-hydroxyphenyl)-6,6a,7,8,9,10-hexahydro-12H-pyrazino[2,1-c]pyrido[3,4-f][1,4]oxazepin-12-one] | 
7.25 | C=CC(=O)N1CCN2C(=O)c3c(N4CCN(C5COC5)C[C@H]4C)nc(-c4c(O)cccc4F)c(Cl)c3OC[C@H]2C1 (single isomer, unassigned) [Z239-2] | 
7.72 | C=CC(=O)N1CCN2C(=O)c3c(N4CCOCC45CCC5)nc(-c4c(O)cccc4F)c(Cl)c3OC[C@H]2C1 [Z90, (6aR)-8-acryloyl-4-chloro-3-(2-fluoro-6-hydroxyphenyl)-1-(8-oxa-5-azaspiro[3.5]nonan-5-yl)-6,6a,7,8,9,10-hexahydro-12H-pyrazino[2,1-c]pyrido[3,4-f][1,4]oxazepin-12-one] | 
6.89 | C=CC(=O)N1CCN2C(=O)c3c(N4C(C)COCC4C)nc(-c4c(O)cccc4F)c(Cl)c3OC[C@H]2C1 (stereo partly drawn) [Z252, (6aR)-8-acryloyl-1-(3,5-dimethylmorpholino)-4-chloro-3-(2-fluoro-6-hydroxyphenyl)-6,6a,7,8,9,10-hexahydro-12H-pyrazino[2,1-c]pyrido[3,4-f][1,4]oxazepin-12-one] | 
7.46 | C=CC(=O)N1CCN2C(=O)c3c(N4C[C@@H](C)N(C)[C@@H](C)C4)nc(-c4c(O)cccc4F)c(Cl)c3OC[C@H]2C1 [Z246, (6aR)-8-acryloyl-4-chloro-3-(2-fluoro-6-hydroxyphenyl)-1-((3S,5R)-3,4,5-trimethylpiperazin-1-yl)-6,6a,7,8,9,10-hexahydro-12H-pyrazino[2,1-c]pyrido[3,4-f][1,4]oxazepin-12-one] | 
6.79 | C=CC(=O)N1CCN2C(=O)c3c(C4=CCN(C)CC4C)nc(-c4c(O)cccc4F)c(Cl)c3OC[C@H]2C1 (stereo partly drawn) [Z304, (6aR)-8-acryloyl-4-chloro-1-(1,3-dimethyl-1,2,3,6-tetrahydropyridin-4-yl)-3-(2-fluoro-6-hydroxyphenyl)-6,6a,7,8,9,10-hexahydro-12H-pyrazino[2,1-c]pyrido[3,4-f]oxazepin-12-one] | 
7.34 | C=CC(=O)N1CCN2C(=O)c3c(N4Cc5nn(C)cc5[C@H]4C)nc(-c4c(O)cccc4F)c(Cl)c3OC[C@H]2C1 (single isomer, unassigned) [Z345-1] | 
7.43 | C=CC(=O)N1CCN2C(=O)c3c(N4Cc5cnn(C)c5[C@@H]4C)nc(-c4c(O)cccc4F)c(Cl)c3OC[C@H]2C1 (single isomer, unassigned) [Z292S, trifluoroacetate] | 
7.57 | C=CC(=O)N1CCN2C(=O)c3c(N4C[C@H](O)CC4(C)C)nc(-c4c(O)cccc4F)c(F)c3OC[C@H]2C1 (single isomer, unassigned) [Z256-2] | 
